In the case of `Cc1ccc(Cl)c(NC(=O)C(C)Cl)c1Cl` (stereo not drawn), the melting point is reported as 149 to 151 °C. `CCc1cccc(C)c1Nc1nnc(S)s1` showed a melting point of 155 to 157 °C. Compound `O=C(O)CCc1nc(-c2cccs2)no1` has a melting point of 108 to 110 °C. Compound `COC(=O)c1c(C(=O)OC)c(-c2ccc(N)cc2)n2c1CCC2` has a melting point of 182 to 184 °C. `O=C(O)C(NS(=O)(=O)c1cccc(Cl)c1)c1ccccc1` (stereo not drawn) gave a melting point of 168 to 170 °C. Compound `Fc1ccc(Oc2ccc(Cl)nn2)c(F)c1` has a melting point of 113 to 115 °C. In the case of `Nc1nnc(-c2ccc(Br)cc2)[nH]1`, the melting point is reported as 214 to 216 °C. Work on `O=C(O)Cc1cnn(-c2ccccc2)n1` yielded a melting point of 105 to 107 °C. Work on `Nc1nc(-c2cccc(Br)c2)cs1` yielded a melting point of 121 to 125 °C. Work on `O=C(O)c1oc2ccccc2c1CO` yielded a melting point of 153 to 155 °C. Work on `CC(=O)NC1CCC(N)CC1` (stereo not drawn) yielded a melting point of 129 to 131 °C. Work on `CCOC(=O)c1cc(C)sc1NC(=O)CCl` yielded a melting point of 104 to 106 °C. With `O=C1COc2c1ccc(Cl)c2Cl` the melting point was 141 to 143 °C. Compound `OCc1nc(Cc2ccc(F)cc2)no1` has a melting point of 53 to 55 °C. For `O=Cc1cnn2ccccc12`, the melting point was 82 to 84 °C. With `Nc1ccccc1-c1nc(-c2ccccc2)n[nH]1` the melting point was 177 to 179 °C. In the case of `O=C(CCCc1ccc(Br)cc1)c1ccccc1`, the melting point is reported as 84 to 86 °C. With `COc1ccc2nc(Cl)c(C)cc2c1` the melting point was 92 to 94 °C. With `O=C(O)c1c[nH]nc1C1CCCCC1` the melting point was 269 to 271 °C. Work on `CC(=O)c1ccc(S(=O)(=O)N2CCOCC2)cc1` yielded a melting point of 161 to 163 °C. `Nc1nc(-c2cccc(Cl)c2)cs1` gave a melting point of 125 to 127 °C. In the case of `CNC(=O)c1ccc(C=O)cc1`, the melting point is reported as 152 to 154 °C. In the case of `c1nnc(C2CCNCC2)[nH]1`, the melting point is reported as 208 to 210 °C. `Cc1nc(-c2ccsc2)sc1C(=O)O` gave a melting point of 235 to 237 °C. With `CSc1cccc(Cl)c1C#N` the melting point was 114 to 116 °C. Work on `O=S(=O)(c1ccc2c(c1)NCC2)N1CCCC1` yielded a melting point of 181 to 183 °C. For `COC(=O)c1ccc(NC(=O)CCCCl)cc1`, the melting point was 128 to 130 °C. With `NNC(=O)c1ccc(COc2cccc3cccnc23)cc1` the melting point was 135 to 137 °C. Work on `CCc1ccc(-c2nn(-c3ccccc3)cc2C(=O)O)cc1` yielded a melting point of 208 to 210 °C. Compound `Cc1nc(N)n[nH]1` has a melting point of 142 to 144 °C. Work on `Cc1ccccc1C(C)CC(=O)O` (stereo not drawn) yielded a melting point of 47 to 49 °C. For `CCOC(=O)Cn1c(=O)[nH]c2cc(Br)cnc21`, the melting point was 206 to 208 °C. Compound `CCCCc1ccc(N2CC(C(=O)O)CC2=O)cc1` (stereo not drawn) has a melting point of 139 to 141 °C. `CC(C)(C)c1ccc(C(=O)Nc2ccccc2N)cc1` showed a melting point of 175 to 177 °C. `CC(=O)c1c(O)cc(C)oc1=O` showed a melting point of 109 to 111 °C. With `O=C1NC(=O)C(c2cc(Br)ccc2F)N1` (stereo not drawn) the melting point was 194 to 196 °C. For `COc1ccc(N)cc1Br`, the melting point was 58 to 60 °C. Compound `COc1ccc(OC)c(CBr)c1` has a melting point of 77 to 79 °C. With `Nc1cccc(NS(=O)(=O)c2ccc(Cl)cc2)c1` the melting point was 112 to 114 °C. In the case of `O=C(O)c1c(-n2cccc2)sc2c1CCSC2`, the melting point is reported as 169 to 171 °C. With `CCOC(=O)CNC(=O)OCC(F)(F)F` the melting point was 38 to 40 °C. In the case of `Nc1cnn(CC(=O)Nc2cccnc2)c1`, the melting point is reported as 117 to 119 °C. Compound `Nc1ncn(Cc2cccc(Br)c2)n1` has a melting point of 147 to 149 °C. `O=C(O)C1CCN(S(=O)(=O)c2cc(F)ccc2F)CC1` showed a melting point of 149 to 151 °C. With `O=C(O)CCn1cc(Br)ccc1=O` the melting point was 172 to 174 °C. Work on `COc1ccc(C(=O)O)cc1C(C)C` yielded a melting point of 164 to 166 °C. In the case of `Cn1ncc2c(N3CCNCC3)ncnc21`, the melting point is reported as 64 to 66 °C. For `C#CCN1CCCCC1C(=O)NC` (stereo not drawn), the melting point was 116 to 118 °C. For `CN(C1CCCCC1)S(=O)(=O)c1ccccc1N`, the melting point was 98 to 101 °C. Compound `O=C(CCl)Nc1cccc(Cl)c1` has a melting point of 70 to 72 °C. `NNc1cccc(F)c1F` showed a melting point of 61 to 63 °C. `Cc1cc(Br)c2c(c1)C(=O)C(=O)N2` gave a melting point of 178 to 180 °C. With `Nc1cc(N2CCCS2(=O)=O)ccc1O` the melting point was 134 to 136 °C. `CC(C)C(=O)N1CCCCC1C(=O)O` (stereo not drawn) showed a melting point of 123 to 125 °C. Work on `NNC(=O)N1CCSCC1` yielded a melting point of 129 to 131 °C. `CC(C)C(NC(=O)c1ccc(Br)cc1)C(=O)O` (stereo not drawn) gave a melting point of 189 to 191 °C. Work on `Nc1cnc(Cc2ccc(F)cc2)nc1` yielded a melting point of 123 to 125 °C. Work on `CCOc1ccc(C(=O)CBr)cc1` yielded a melting point of 57 to 59 °C. In the case of `Cc1n[nH]c(C)c1[N+](=O)[O-]`, the melting point is reported as 121 to 123 °C. `Nc1nc(Cc2ccccc2)c(-c2ccccc2)s1` gave a melting point of 139 to 141 °C. Compound `Cn1c(C2CC2)nc2cc(N)ccc21` has a melting point of 99 to 101 °C. For `C#CCSc1cccc(C(=O)O)c1`, the melting point was 121 to 123 °C. With `CN(c1ccccc1)S(=O)(=O)c1cccc(NC(=O)CCl)c1` the melting point was 98 to 100 °C. Work on `COC(=O)c1cccc(-c2nn[nH]n2)c1` yielded a melting point of 189 to 191 °C. For `Cc1ccc(NC(=O)c2cc(Cl)ccc2Cl)c(C(=O)O)c1`, the melting point was 242 to 244 °C. `CCOC(=O)c1c(CC(C)C)csc1NC(=O)CCl` gave a melting point of 98 to 100 °C. With `Cc1nc2ccc(Br)cc2c(Cl)c1C` the melting point was 99 to 101 °C. In the case of `Cc1ncsc1-c1nc(CN)no1`, the melting point is reported as 159 to 161 °C. `O=c1ccc2c(Cl)ccc(Cl)c2[nH]1` showed a melting point of 194 to 196 °C. Compound `O=C(O)CC(O)c1ccc(Cl)cc1` (stereo not drawn) has a melting point of 197 to 199 °C. `COc1ccc(C(=O)O)cc1-c1ccn(C)n1` gave a melting point of 179 to 181 °C. `CC(=O)Nc1cc(S(=O)(=O)Cl)ccc1O` gave a melting point of 289 to 291 °C. For `NNC(=S)NCc1ccc(F)cc1`, the melting point was 140 to 142 °C.
